Values of other authors, collected in patent US20100104622A1, “Ligand Targeted Nanocapsules for the delivery of RNAi and other Agents” (priority 2008, published 2010).

Tested on: advanced stage melanoma
Conditions: melanoma patients

## COc1cccc2c1C(=O)c1c(O)c3c(c(O)c1C2=O)C[C@@](O)(C(=O)CO)C[C@@H]3O[C@H]1C[C@H](N)[C@H](O)[C@H](C)O1 [Doxorubicin]
  efficacy in advanced stage melanoma: essentially ineffective
